{
  "source": "paper PMC5177629",
  "about": "“Selective Estrogen Receptor Modulators: Cannabinoid Receptor Inverse Agonists with Differential CB1 and CB2 Selectivity” (Frontiers in Pharmacology, 2016)",
  "key": {"[1]": {"target": "T1, human cannabinoid type-2 receptors (hCB2) (Homo sapiens, UniProt P34972)", "T1 construct": "expressed in transfected cells; host or cells: CHO cells (CHO-hCB2), membranes or intact cells", "T1 sequence (P34972 whole entry)": "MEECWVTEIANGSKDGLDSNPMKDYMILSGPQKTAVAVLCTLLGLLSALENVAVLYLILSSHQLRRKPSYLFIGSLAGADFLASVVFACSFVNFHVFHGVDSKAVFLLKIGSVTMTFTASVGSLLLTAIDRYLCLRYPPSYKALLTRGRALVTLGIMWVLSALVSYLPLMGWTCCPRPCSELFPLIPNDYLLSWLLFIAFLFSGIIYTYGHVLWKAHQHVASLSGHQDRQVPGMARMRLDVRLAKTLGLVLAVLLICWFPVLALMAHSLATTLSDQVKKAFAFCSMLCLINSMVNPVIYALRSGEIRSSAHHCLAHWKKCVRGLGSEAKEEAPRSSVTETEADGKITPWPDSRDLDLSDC", "experiment": "[35S]GTPγS binding, CHO-hCB2 membranes", "type": "biochemical", "details": "for IMAX, GTPγS Binding (% Basal) CHO-hCB2: maximal reduction of basal G-protein activity", "method": "In short, pellets were thawed on ice, combined in a 40 ml glass Dounce homogenizer and homogenized in 20 ml of cold buffer (50 mM HEPES at pH 7.4, 3 mM MgCl2, and 1 mM EGTA) using 10 strokes. Homogenates were then centrifuged at 40,000 × g for 10 min at 4°C. After discarding the supernatant, pellets were homogenized and centrifuged twice more. Final pellets were re-suspended in ice-cold 50 mM HEPES, pH 7.4, aliquoted and stored at -80°C for future use. Protein concentration was determined the same day, prior to freezing, using BCA^TM Protein Assay (Thermo Fisher Scientific, Waltham, MA, USA).\nNon-specific binding was defined by radioactivity remaining in the presence of 10 μM of non-radioactive GTPγS. All reactions were incubated for 30 min at 30°C, terminated by filtration through Whatman GF/B glass fiber filters (Brandel, Inc.) and followed by four 4 ml washes of ice cold filtration buffer (50 mM HEPES, pH 7.4) containing 0.1% bovine serum albumin. Filter punches of individual samples were placed in scintillation vials containing 4 mls of ScintiverseTM BD cocktail scintillation fluid (Fisher Scientific, Pittsburg, PA, USA). Final counts were determined using liquid scintillation spectrophotometry (Tri Carb 2100 TR Liquid Scintillation Analyzer, Packard Instrument Company, Meriden, CT, USA) after overnight incubation.\n(§1) Statistical analyses were conducted by utilizing GraphPad Prism v6.0g (GraphPad Software, Inc.; San Diego, CA, USA). IC50 values from competition receptor binding curves were derived by non-linear regression. […] Non-linear regression analysis of concentration-effect curves was also used to determine potency (ED50 or IC50) and efficacy (Emax or Imax) for modulation of GTPγS and adenylyl cyclase activity, respectively. All IC50, EC50, Ki, and Kb values were converted to pEC50, pIC50, pKi, and pKb values in order to permit use of parametric statistical analyses. For all experiments comparing three or more values, an one-way ANOVA was employed, followed by Dunnett’s or Tukey’s post hoc tests. For comparisons of two values, an unpaired t-test was utilized. To determine significant radioligand displacement or modulation of G-protein activity compared to basal levels, a one-sample t-test was employed.\nCBRs are coupled to Gi/Go type G-proteins. Therefore, binding of agonists to CBRs leads to G-protein activation, antagonists produce no effect, and inverse agonists reduce basal G-protein activity produced by constitutively active receptors. SERMs were screened by examining the ability of a single receptor saturating concentration (10 μM) to modulate G-protein activity in membranes prepared from CHO-hCB1 and CHO-hCB2 cells. G-protein activation was quantified using employing [^35S]GTPγS, a non-hydrolyzable analog of GTP, that irreversibly binds to the G-proteins when activated."}, "[2]": {"target": "T1, human cannabinoid type-2 receptors (hCB2)", "experiment": "Adenylyl cyclase assay (forskolin-stimulated cAMP), intact CHO-hCB2 cells", "type": "cell-based", "details": "for Emax: elevation of cAMP, read-out: EMAX, Intracellular [3H]cAMP; for EC50: increase of cAMP, 10 μM forskolin, read-out: EC50, Intracellular [3H]cAMP", "method": "(§2) Briefly, cells cultured between passages 4 and 15 were seeded into 24-well plates at a concentration of 6.5 million cells per plate and incubated overnight in a humidified incubator maintained at 37°C and 5% CO2. Growth media was removed the next day and replaced with media containing […] [^3H]adenine, 0.9g/L NaCl, and 0.5 mM isobutyl-methyl-xanthine (IBMX) for 2–3 h. Radioactive media was then removed and each well treated with 0.5 ml of varying concentrations of SERM compounds in a Krebs-Ringer-HEPES solution (10 mM HEPES, 110 mM NaCl, 25 mM Glucose, 55 mM Sucrose, 5 mM KCl, 1 mM MgCl2, 1.8 mM CaCl2, pH 7.4) containing 0.5 mM IBMX and 10 μM forskolin. Plates were then floated in a 37°C water bath for 15 min before reactions were terminated by addition of 50 μL of 2.2 N HCl to each well.\nas §1\nTo provide a second measure of intrinsic activity, the ability of SERMs to modulate intracellular levels of cAMP in intact cells was examined (Figure 6). CBRs couple to Gi/Go-proteins, and thus cannabinoid agonists inhibit activity of the downstream intracellular effector adenylyl cyclase, reducing intracellular cAMP levels."}, "[3]": {"target": "T1, human cannabinoid type-2 receptors (hCB2)", "experiment": "Antagonism of CP-55,940 inhibition of adenylyl cyclase, intact CHO-hCB2 cells", "type": "cell-based", "details": "for IMAX of CP-55,940 after pre-incubation with the drug / type of antagonism at hCB2Rs: CHO-hCB2 cells; for IMAX of CP-55,940 after pre-incubation with the drug: pre-incubation 30 min: OSP, NAF 10 μM, RAL, BAZ 2 μM, AM-630 1 μM; for type of antagonism at hCB2Rs: CP-55,940 inhibition of adenylyl cyclase", "method": "as §2\nReactions were then terminated by adding 50 μL of 2.2 N HCl to each well. [^3H]cAMP was isolated using alumina column chromatography and radioactivity quantified following addition of 10 mls of scintiverseTM BD cocktail scintillation fluid (Fisher Scientific, Pittsburg, PA, USA) by liquid scintillation spectrophotometry (Tri Carb 2100 TR Liquid Scintillation Analyzer, Packard Instrument Company, Meriden, CT, USA).\nas §1\nIC50 and Kb values were converted to pIC50 and pKb values (pIC50 = -Log[IC50] or pKb = -Log[Kb], respectively) to allow use of parametric statistics for comparison."}, "[4]": {"details": "reduction of basal G-protein activity, CHO-hCB2 membranes, read-out: IC50, GTPγS Binding CHO-hCB2"}},
  "note": "Read-outs that look alike come from different tables or passages of the source.",
  "data": [
    {"molecule": "Cc1c(-c2ccc(O)cc2)n(Cc2ccc(OCCN3CCCCCC3)cc2)c2ccc(O)cc12", "note": "[BAZ, bazedoxifene]", "values": [
      {"measurement": "IMAX, GTPγS Binding (% Basal) CHO-hCB2", "setting": "[1]", "result": "34.0 ± 1.0^b,∗ %"},
      {"measurement": "IC50", "setting": "[1]; [4]", "result": 71.6, "unit": "nM"},
      {"measurement": "Emax", "setting": "[2]", "result": "352 ± 14", "unit": "%"},
      {"measurement": "EC50", "setting": "[2]", "result": 1980, "unit": "nM"},
      {"measurement": "IMAX of CP-55,940 after pre-incubation with the drug", "setting": "[3]", "result": "28.8 ± 3.0^∗∗ %"},
      {"measurement": "type of antagonism at hCB2Rs", "setting": "[3]", "result": "insurmountable antagonist"}
    ]},
    {"molecule": "COc1ccc2c(c1)CCC(c1ccccc1)=C2c1ccc(OCCN2CCCC2)cc1", "note": "[NAF, nafoxidine]", "values": [
      {"measurement": "IC50", "setting": "[1]; CHO-hCB2 membranes, mean ± SEM, read-out: pIC50, GTPγS Binding CHO-hCB2 (converted)", "result": 344, "unit": "nM"},
      {"measurement": "IMAX, GTPγS Binding (% Basal) CHO-hCB2", "setting": "[1]", "result": "38.7 ± 1.2^a,b,∗∗ %"},
      {"measurement": "IMAX of CP-55,940 after pre-incubation with the drug", "setting": "[3]", "result": "32.3 ± 2.3", "unit": "%"},
      {"measurement": "type of antagonism at hCB2Rs", "setting": "[3]", "result": "surmountable antagonists"},
      {"measurement": "Kb", "setting": "[3]; intact CHO-hCB2 cells, mean ± SEM, read-out: pKb, CHO-hCB2 (converted)", "result": 337, "unit": "nM"}
    ]},
    {"molecule": "O=C(c1ccc(OCCN2CCCCC2)cc1)c1c(-c2ccc(O)cc2)sc2cc(O)ccc12", "note": "[RAL, raloxifene]", "values": [
      {"measurement": "IMAX, GTPγS Binding (% Basal) CHO-hCB2", "setting": "[1]", "result": "34.3 ± 2.2^b,∗∗ %"},
      {"measurement": "IC50", "setting": "[1]; [4]", "result": 87.1, "unit": "nM"},
      {"measurement": "Emax", "setting": "[2]", "result": "234 ± 21", "unit": "%"},
      {"measurement": "EC50", "setting": "[2]", "result": 873, "unit": "nM"},
      {"measurement": "IMAX of CP-55,940 after pre-incubation with the drug", "setting": "[3]", "result": "33.0 ± 1.3", "unit": "%"},
      {"measurement": "type of antagonism at hCB2Rs", "setting": "[3]", "result": "surmountable antagonists"},
      {"measurement": "Kb", "setting": "[3]; read-out: Kb (antagonist dissociation constant), CHO-hCB2", "result": 66.5, "unit": "nM"}
    ]},
    {"molecule": "OCCOc1ccc(/C(=C(/CCCl)c2ccccc2)c2ccccc2)cc1", "note": "[OSP, ospemifene]", "values": [
      {"measurement": "reduction of G-protein activity, hCB2Rs", "setting": "[1]; CHO-hCB2 membranes, 10 μM", "result": "~30", "unit": "%"},
      {"measurement": "IMAX, GTPγS Binding (% Basal) CHO-hCB2", "setting": "[1]", "result": "39.7 ± 2.4^a,∗∗ %"},
      {"measurement": "IC50", "setting": "[1]; [4]", "result": 558, "unit": "nM"},
      {"measurement": "Emax", "setting": "[2]", "result": "279 ± 17", "unit": "%"},
      {"measurement": "EC50", "setting": "[2]", "result": 1440, "unit": "nM"},
      {"measurement": "Kb", "setting": "[3]", "result": 1260, "unit": "nM"},
      {"measurement": "IMAX of CP-55,940 after pre-incubation with the drug", "setting": "[3]", "result": "31.7 ± 2.3", "unit": "%"},
      {"measurement": "type of antagonism at hCB2Rs", "setting": "[3]", "result": "surmountable antagonists"}
    ]}
  ]
}
